Values quoted from earlier work as cited in US20040101549A1, “Treatments” (priority 2002, published 2004).

For polyestradiol phosphate [PEP], the “overall and cardiovascular mortality versus maximum androgen blockade” value (915 patients randomized, over 6 years, Hedlund & Henriksson) is listed as “equivalent”, the long-term cardiovascular protection (epidemiological comparison to an age-standardized population, Aro) is listed as “significant long-term cardiovascular protection” and the “reduction of short-term cardiovascular morbidity” value (intramuscular, first line CaP therapy, Mikkola et al) is listed as “over 90%”.
